Measurements reported in patent publication US11434237B2, “Selective ligands for tau aggregates” (KARIN & STEN MORTSTEDT CBD SOLUTIONS AB, priority 2017, dated 2022).

Tests used:
Aβ and tau deposits = test: Co-staining of AD brain sections with q-FTAA-CN and Example Compound 3a; assay type: binding, human; conditions: simultaneous staining, 100 nM q-FTAA-CN and 100 nM Example Compound 3a
Protocol: Frozen brain sections (20 μm) were fixed in 96% EtOH, rehydrated in 50% EtOH and de-ionized water and then incubated in phosphate buffered saline (PBS, 10 mM phosphate, 140 mM NaCl, 2.7 mM KCl, pH 7.4) for 10 min. Solutions containing 100 nM PBB3 and 100 nM Example Compound 3b or 100 nM q-FTAA-CN and 100 nM Example Compound 3a in PBS were added to the sections. After 30 min, the sections were washed with PBS and mounted with Dako fluorescent mounting medium (Dako Cytomation, Glostrup, Denmark). The mounting medium was allowed to solidify over night before collecting emission spectra of the compounds bound to misfolded A ? and tau using an inverted LSM 780 confocal microscope (Carl Zeiss, Oberkochen, Germany) with excitation wavelengths at 405 nm (PBB3 and q-FTAA-CN) and 561 nm (Example Compound 3a and Example Compound 3b).

tau aggregates = molecular target: T1, tau aggregates (Homo sapiens, UniProt P10636); test: Example Compound 3b staining of AD brain sections pre-incubated with q-FTAA-CN; assay type: binding; conditions: FIG. 7H, pre-incubated with 1 μM q-FTAA-CN, then 10 nM Example Compound 3b
T1 construct: tissue sections (20 μm) from human AD brain; from tissue; host or cells: human AD brain tissue sections (20 μm)
T1 sequence (P10636 1-441 isoform P10636-8): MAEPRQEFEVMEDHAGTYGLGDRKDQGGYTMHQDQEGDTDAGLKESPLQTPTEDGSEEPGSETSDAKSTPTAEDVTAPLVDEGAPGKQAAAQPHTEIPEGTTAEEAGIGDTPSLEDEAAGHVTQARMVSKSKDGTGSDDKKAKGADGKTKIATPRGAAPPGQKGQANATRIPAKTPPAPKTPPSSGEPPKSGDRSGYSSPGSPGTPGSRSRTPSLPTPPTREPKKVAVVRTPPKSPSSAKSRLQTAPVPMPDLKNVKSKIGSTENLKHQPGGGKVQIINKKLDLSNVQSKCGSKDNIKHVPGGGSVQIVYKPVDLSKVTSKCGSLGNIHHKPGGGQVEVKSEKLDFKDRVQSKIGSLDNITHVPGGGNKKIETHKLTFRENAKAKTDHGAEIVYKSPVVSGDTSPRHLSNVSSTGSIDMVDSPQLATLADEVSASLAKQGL
Protocol: Frozen brain sections (20 μm) were fixed in 96% EtOH, rehydrated in 50% EtOH and de-ionized water and then incubated in phosphate buffered saline (PBS, 10 mM phosphate, 140 mM NaCl, 2.7 mM KCl, pH 7.4) for 10 min. The sections were stained with solutions containing 1 ? M PBB3 or 1 ? M q-FTAA-CN in PBS for 30 min and after rinsing three times with PBS, the sections was stained with a solution containing 10 nM Example Compound 3b. After 30 min, the sections were washed with PBS and mounted with Dako fluorescent mounting medium (Dako Cytomation, Glostrup, Denmark). The mounting medium was allowed to solidify over night before collecting emission spectra of the compounds bound to misfolded Aβ and tau using an inverted LSM 780 confocal microscope (Carl Zeiss, Oberkochen, Germany) with excitation wavelengths at 405 nm (PBB3 and q-FTAA-CN) and 561 nm (Example Compound 3b).

SMILES: N#Cc1cc(CC(=O)O)c(-c2ccc(-c3sc(-c4ccc(C(=O)O)s4)cc3CC(=O)O)s2)s1 [q-FTAA-CN, reference compound]
- Deposits labelled (Aβ and tau deposits): selectively labelled Aβ deposits
- Fluorescence from q-FTAA-CN observed (Aβ and tau deposits; FIG. 7A-C): yes
- Fluorescence from q-FTAA-CN observed (tau aggregates): observed from both Aβ deposits (small arrow-heads) and tau aggregates and yes
- Fluorescence from q-FTAA-CN observed (tau aggregates; listed as q-FTAA): labelled both Aβ deposits and NFTs
